Laboratory results reported in ChEMBL document CHEMBL1201862, “PubChem BioAssay data set” (2004).
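Cultured in 96-well plates, cells were exposed to test compound for 48 hours across five concentrations. Here, GI50 denotes the concentration required for 50% inhibition of growth.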 The source made the active and inactive calls. No stated cut-off is given here; in the data, active = GI50 up to about 1.1 µM and inactive = higher.

What was measured:
Test in all cases: NCI anticancer screen, dose series, 48 h
[1] = system: NCI-H226
[2] = system: NCI-H460
[3] = system: UO-31
[4] = system: HCC 2998
[5] = system: Hs-578T
[6] = system: ACHN
[7] = system: TK-10
[8] = system: MDA-N
[9] = system: NCI/ADR-RES
[10] = system: K562
[11] = system: SNB-19
[12] = system: CCRF-CEM
[13] = system: UACC-62
[14] = system: Malme-3M
[15] = system: A498
[16] = system: SK-MEL-2
[17] = system: HL-60
[18] = system: DU-145

Structure (SMILES)	GI50 [1]	GI50 [2]	GI50 [3]	GI50 [4]	GI50 [5]	GI50 [6]	GI50 [7]	GI50 [8]	GI50 [9]	GI50 [10]	GI50 [11]	GI50 [12]	GI50 [13]	GI50 [14]	GI50 [15]	GI50 [16]	GI50 [17]	GI50 [18]
O=C(CN(C(=O)OC12CC3CC(CC(C3)C1)C2)C(=O)OC12CC3CC(CC(C3)C1)C2)Oc1ccc([N+](=O)[O-])cc1	> 100 µM (inactive)	> 100 µM (inactive)	> 100 µM (inactive)	> 100 µM (inactive)	> 100 µM (inactive)	> 100 µM (inactive)	52.4 µM (inactive)	> 100 µM (inactive)	85.3 µM (inactive)	58.1 µM (inactive)	> 100 µM (inactive)	30.5 µM (inactive)	> 100 µM (inactive)	75 µM (inactive)				
O=c1o[nH]/c(=N/c2ccccc2)n1-c1ccccc1	> 100 µM (inactive)	> 100 µM (inactive)	> 100 µM (inactive)	93.3 µM (inactive)	> 100 µM (inactive)	> 100 µM (inactive)	> 100 µM (inactive)	> 100 µM (inactive)	> 100 µM (inactive)	> 100 µM (inactive)	> 100 µM (inactive)	> 100 µM (inactive)	> 100 µM (inactive)	> 100 µM (inactive)	> 100 µM (inactive)	> 100 µM (inactive)	> 100 µM (inactive)	
O=C1/C(=N/c2ccc(Nc3ccccc3)cc2)Oc2ccccc21	3.31 µM (inactive)	5.31 µM (inactive)	2.35 µM (inactive)	8.26 µM (inactive)		3.18 µM (inactive)	3.84 µM (inactive)	2.74 µM (inactive)	1.9 µM (inactive)	2.93 µM (inactive)	2.36 µM (inactive)	1.86 µM (inactive)	3.28 µM (inactive)	2.99 µM (inactive)	5.69 µM (inactive)	3.3 µM (inactive)	1.99 µM (inactive)	8.47 µM (inactive)
CCOC(=O)/C=C(/C(=O)OCC)n1cc(C)c(=O)n(Cc2cn(CCCCOC(C)=O)nn2)c1=O	18.4 µM (inactive)	10.7 µM (inactive)	15.1 µM (inactive)	18.3 µM (inactive)	23.2 µM (inactive)	5.09 µM (inactive)	4.67 µM (inactive)	35 µM (inactive)	23.6 µM (inactive)	4.14 µM (inactive)	18.8 µM (inactive)	0.363 µM (active)	14.7 µM (inactive)			20.1 µM (inactive)		34.4 µM (inactive)
CCCN1CC=CCC1		> 100 µM (inactive)	> 100 µM (inactive)	> 100 µM (inactive)		> 100 µM (inactive)	> 100 µM (inactive)			< 0.01 µM (active)	> 100 µM (inactive)	2.09 µM (inactive)	> 100 µM (inactive)	> 100 µM (inactive)	> 100 µM (inactive)	> 100 µM (inactive)	> 100 µM (inactive)	
O=C1CSC(c2ccccc2O)N1c1ccc2c(c1)Oc1c(Cl)c3c(c(Cl)c1=N2)Oc1cc(N2C(=O)CSC2c2ccccc2O)ccc1N=3 (centres undefined)	73.6 µM (inactive)	43 µM (inactive)	> 100 µM (inactive)	53.3 µM (inactive)	30.3 µM (inactive)	24.5 µM (inactive)	62.5 µM (inactive)	38.4 µM (inactive)	> 100 µM (inactive)	13.2 µM (inactive)		18.1 µM (inactive)			> 100 µM (inactive)	47.6 µM (inactive)	0.664 µM (active)	42.4 µM (inactive)
Cc1ccc(/C=C2\Cc3cccc(C)c3C2=O)c(C(=O)O)c1	> 100 µM (inactive)	> 100 µM (inactive)	17.3 µM (inactive)	39.1 µM (inactive)	> 100 µM (inactive)	28.7 µM (inactive)	> 100 µM (inactive)	> 100 µM (inactive)		99.8 µM (inactive)	> 100 µM (inactive)	36.9 µM (inactive)		> 100 µM (inactive)	> 100 µM (inactive)		85.7 µM (inactive)	> 100 µM (inactive)
CC(=O)c1ccc2c(c1)CC1(C2)Cc2cc3c(c(C(=O)O)c2C1)CCC3 (centres undefined)	> 100 µM (inactive)	64.6 µM (inactive)	40 µM (inactive)	> 100 µM (inactive)	33 µM (inactive)	68.1 µM (inactive)	> 100 µM (inactive)	> 100 µM (inactive)	80.5 µM (inactive)	72.4 µM (inactive)		81.8 µM (inactive)	72.1 µM (inactive)	53.1 µM (inactive)	> 100 µM (inactive)		> 100 µM (inactive)	> 100 µM (inactive)
CC(=C(C(N)=O)C(N)=O)C1C=C(c2cccs2)CC(c2ccc(Cl)cc2)=C1O (centres undefined)	73.6 µM (inactive)	69 µM (inactive)	16.4 µM (inactive)	34 µM (inactive)	> 100 µM (inactive)	52.5 µM (inactive)	45.3 µM (inactive)	35.1 µM (inactive)	44.9 µM (inactive)	25 µM (inactive)	77.8 µM (inactive)	26.2 µM (inactive)	25.1 µM (inactive)		21.5 µM (inactive)	> 100 µM (inactive)	9.59 µM (inactive)	63.5 µM (inactive)
